Measurements as given in article PMC8038955, “Antimicrobial D-amino acid oxidase-derived peptides specify gut microbiota” (Cellular and Molecular Life Sciences: CMLS, 2021).
Converted amounts (≈) assume the structure as drawn. Like-named read-outs stand apart in the source and are kept apart here. Where a SMILES comes first, the peptide text is derived from it. Bridges are numbered along the chain shown (N, C = ends). Where no end group is shown, it is not given here. [ ]: non-standard residue; d: D form. The star is where a group is joined. X1 = CC[C@H](C)CCCCC(=O)*; Dab = NCC[C@H](N)C(=O)O

Assays:
[1] = tested on: Salmonella typhimurium ATCC 14028; type: cell-based
Experimental: (§1) MIC (Minimum Inhibitory Concentration) analyses were performed on Gram-positive and Gram-negative bacteria by a broth microdilution method previously described, with minor modifications. In details, assays were carried out in Nutrient Broth 0.5× (Difco, Detroit, MI, USA) using sterile 96-well polypropylene microtiter plates (cat. 3879, Costar Corp., Cambridge, MA, USA). Bacterial strains were grown in Luria–Bertani (LB) medium overnight at 37 °C and then diluted in nutrient broth at a final concentration of ~ 5 × 10^5 CFU/mL per well. […] Peptide concentrations were determined by spectrophotometric analysis using the extinction coefficients calculated by the ProtParam tool (http://web.expasy.org/protparam/). Twofold serial dilutions of peptides were carried out in the test wells (0.2–100 μM concentration range). Plates were incubated overnight at 37 °C. MIC value was taken as the lowest concentration at which growth was inhibited. Three independent experiments were performed for each MIC value. The peptide antibiotic polymyxin B and vancomycin (Sigma, St. Louis, MO) were tested as control. MIC values were measured on: Pseudomonas aeruginosa PAO1, Acinetobacter baumanii ATCC 17878, Escherichia coli ATCC 25922, Salmonella typhimurium ATCC 14028, Salmonella enteritidis 706 RIVM (kindly provided by Prof. E. Veldhuizen, Utrecht University, Holland), Staphylococcus aureus ATCC 6538P, and Enterococcus faecalis ATCC 29212.

[2] = tested on: Enterococcus faecalis ATCC 29212; assay: microbe, parasite or virus in culture; type: cell-based
Experimental: as §1

[3] = tested on: selected Gram-positive and Gram-negative strains; assay: Antimicrobial activity of mucosal peptides on selected strains; type: cell-based; details: summary of Table 3
Experimental: as §1, with “The peptide antibiotic polymyxin B and vancomycin (Sigma, St. Louis, MO) were tested as control.” left out

[4] = tested on: Escherichia coli ATCC 25922; type: cell-based
Experimental: as §1

[5] = tested on: Pseudomonas aeruginosa PAO1; type: cell-based; details: control antibiotic; broth microdilution, Nutrient Broth 0.5×, overnight 37 °C
Experimental: as §1

[6] = tested on: Acinetobacter baumanii ATCC 17878; type: cell-based; details: control antibiotic; broth microdilution, Nutrient Broth 0.5×, overnight 37 °C
Experimental: as §1

[7] = tested on: Salmonella enteritidis 706 RIVM; type: cell-based; details: control antibiotic; broth microdilution, Nutrient Broth 0.5×, overnight 37 °C
Experimental: as §1

L. fermentum ATCC 14931 = assay: Lactobacilli susceptibility, broth microdilution (ISO 10932/IDF 233); type: cell-based, Lactobacillus fermentum; details: Limosilactobacillus fermentum
Experimental: (§2) To assess the effect of antibacterial peptides on lactobacilli, Lactobacillus acidophilus ATCC 4356, Lactobacillus casei ATCC 393, Lactobacillus fermentum ATCC 14931, and Lactobacillus rhamnosus ATCC 7469 strains (from American Type Culture Collection) were used. Before performing the test, cultures were streaked on Lactobacilli MRS agar (MRS) and incubated for 24 h at 37 °C in an anaerobic chamber (BD Difco, Detroit, MI, USA). Antibacterial susceptibility testing was performed according to the ISO 10932/IDF 233 standard (ISO, 2010). […] Typically, a twofold serial dilution of stock solutions was performed in Lactobacilli MRS broth to obtain solutions in the 0.2–100 µM concentration range. Bacterial inocula were prepared by suspending colonies, from 24 h incubated Lactobacilli MRS agar plates, into 2 mL of 0.85% NaCl solution. […] MIC values were estimated after incubating the plates under anaerobic conditions at 37 °C for 48 h.

L. acidophilus ATCC 4356 = assay: as above; type: cell-based; details: Lactobacillus acidophilus
Experimental: as §2

L. rhamnosus ATCC 7469 = assay: as above; type: cell-based, Lactobacillus rhamnosus; details: Lacticaseibacillus rhamnosus
Experimental: as §2

L. casei ATCC 393 = assay: as above; type: cell-based, Lactobacillus casei; details: Lacticaseibacillus casei
Experimental: as §2

[8] = tested on: Escherichia coli ATCC 25922; type: cell-based; remark: listed apart in the source
Experimental: The Minimum Bactericidal Concentration (MBC) was determined from the broth dilution of MIC tests by subculturing cell mixtures on agar plates. The MBC was defined as the lowest concentration of antibacterial agent that kills ≥ 99.9% of bacterial cells. According to a widely accepted criterion, peptides were considered bactericidal if their MBC was no more than four times the MIC.

[9] = control antibiotic, broth microdilution, Nutrient Broth 0.5×, overnight 37 °C

For EAANLFGKILEEKKLSRLPPSHL [EAA], the MIC ([1]; ATCC 14028) was greater than 200 µM, the MIC ([2]; ATCC 29212) was greater than 200 µM and the “antibacterial activity (in words)” value [3] was “did not show any antibacterial activity”.
`CC[C@H](C)CCCCC(=O)N[C@@H](CCN)C(=O)N[C@H](C(=O)N[C@@H](CCN)C(=O)N[C@H]1CCNC(=O)[C@H]([C@@H](C)O)NC(=O)[C@H](CCN)NC(=O)[C@H](CCN)NC(=O)[C@H](CC(C)C)NC(=O)[C@@H](Cc2ccccc2)NC(=O)[C@H](CCN)NC1=O)[C@@H](C)O` [Polymyxin B, polymyxin B] (X1-[Dab]T[Dab][Dab][Dab][dF]L[Dab][Dab]T; lactam 4-C (inferred); N-terminus assumed) gave an MIC [1, 9] of 0.12 µg/mL, an MIC [4, 9] of 0.5 µg/mL and an MIC [5] of 0.25 µg/mL (≈ 0.208 µM). The MIC [6] was 0.5 µg/mL (≈ 0.415 µM) and the MIC [7] was 0.5 µg/mL (≈ 0.415 µM).
`CC[C@H]1OC(=O)[C@H](C)[C@@H](O[C@H]2C[C@@](C)(OC)[C@@H](O)[C@H](C)O2)[C@H](C)[C@@H](O[C@@H]2O[C@H](C)C[C@H](N(C)C)[C@H]2O)[C@](C)(O)C[C@@H](C)C(=O)[C@H](C)[C@@H](O)[C@]1(C)O` [Erythromycin] was tested, and the MIC (L. fermentum ATCC 14931; ATCC14931, Lactobacilli MRS broth, 3–8 × 10^5 CFU/mL, anaerobic, 37 °C, 48 h, 0.2–100 µM range, read-out: MIC) was 1.4 µM (≈ 1.03 µg/mL), the MIC (L. acidophilus ATCC 4356; ATCC4356, Lactobacilli MRS broth, 3–8 × 10^5 CFU/mL, anaerobic, 37 °C, 48 h, 0.2–100 µM range, read-out: MIC) was 0.7 µM (≈ 0.514 µg/mL) and the MIC (L. rhamnosus ATCC 7469; ATCC7469, Lactobacilli MRS broth, 3–8 × 10^5 CFU/mL, anaerobic, 37 °C, 48 h, 0.2–100 µM range, read-out: MIC) was 0.7 µM (≈ 0.514 µg/mL). For the same molecule, the MIC (L. casei ATCC 393; ATCC393, Lactobacilli MRS broth, 3–8 × 10^5 CFU/mL, anaerobic, 37 °C, 48 h, 0.2–100 µM range, read-out: MIC) was 2.8 µM (≈ 2.06 µg/mL).
Work on `CN[C@H](CC(C)C)C(=O)N[C@H]1C(=O)N[C@@H](CC(N)=O)C(=O)N[C@H]2C(=O)N[C@H]3C(=O)N[C@H](C(=O)N[C@H](C(=O)O)c4cc(O)cc(O)c4-c4cc3ccc4O)[C@H](O)c3ccc(c(Cl)c3)Oc3cc2cc(c3O[C@@H]2O[C@H](CO)[C@@H](O)[C@H](O)[C@H]2O[C@H]2C[C@](C)(N)[C@H](O)[C@H](C)O2)Oc2ccc(cc2Cl)[C@H]1O` [Vancomycin, vancomycin] yielded an MIC (L. fermentum ATCC 14931; ATCC14931, 48 h) greater than 100 µM, an MIC (L. acidophilus ATCC 4356; ATCC4356, 48 h) greater than 100 µM and an MIC ([2]; Enterococcus faecalis, ATCC29212) of 2 µg/mL. It also gave an MIC (L. rhamnosus ATCC 7469; ATCC7469, 48 h) greater than 100 µM and an MIC (L. casei ATCC 393; ATCC393, 48 h) greater than 100 µM.
Molecule LKNARIVGELTGFRPVRPQVRLE [LKN] has an MIC ([1]; ATCC 14028) greater than 200 µM, an MIC ([4]; ATCC 25922) of 50 µM and an MIC ([2]; ATCC 29212) greater than 200 µM. It also gave an MBC [8] of 50 µM.
